Data taken from ChEMBL document CHEMBL3774317, “Design and synthesis of novel tamoxifen analogues that avoid CYP2D6 metabolism” (Eur J Med Chem, 2016).
pIC50: −log10 of the molar value.

Key:
CCRF-CEM = assay: Cytotoxicity against human CCRF-CEM cells assessed as growth inhibition after 48 hrs by SRB assay; type: functional; settings: for CC50: read-out: LC50 (the source's name)
[1] = Cytotoxicity against human HL-60(TB) cells assessed as growth inhibition after 48 hrs by SRB assay; type: functional; settings: HL-60, 48 h; for CC50: read-out: LC50 (the source's name)
[2] = Cytotoxicity against human MOLT4 cells assessed as growth inhibition after 48 hrs by SRB assay; type: functional; settings: MOLT-4, 48 h
EKVX = assay: Cytotoxicity against human EKVX cells assessed as growth inhibition after 48 hrs by SRB assay; type: functional
[3] = Cytotoxicity against human HOP62 cells assessed as growth inhibition after 48 hrs by SRB assay; type: functional; settings: HOP-62, 48 h
NCI-H23 = assay: Cytotoxicity against human NCI-H23 cells assessed as growth inhibition after 48 hrs by SRB assay; type: functional; settings: NCI-H23, 48 h; for CC50: read-out: LC50 (the source's name)
NCI-H522 = assay: Cytotoxicity against human NCI-H522 cells assessed as growth inhibition after 48 hrs by SRB assay; type: functional; settings: NCI-H522, 48 h; for CC50: read-out: LC50 (the source's name)
[4] = Cytotoxicity against human HCC2998 cells assessed as growth inhibition after 48 hrs by SRB assay; type: functional; settings: HCC 2998, 48 h; for CC50: read-out: LC50 (the source's name)
[5] = Cytotoxicity against human SW620 cells assessed as growth inhibition after 48 hrs by SRB assay; type: functional; settings: SW-620, 48 h
[6] = Cytotoxicity against human SF539 cells assessed as growth inhibition after 48 hrs by SRB assay; type: functional; settings: SF-539, 48 h
[7] = Cytotoxicity against human SNB75 cells assessed as growth inhibition after 48 hrs by SRB assay; type: functional; settings: SNB-75, 48 h
M14 = assay: Cytotoxicity against human M14 cells assessed as growth inhibition after 48 hrs by SRB assay; type: functional; settings: M14, 48 h; for CC50: read-out: LC50 (the source's name)
MDA-MB-435 = assay: Cytotoxicity against human MDA-MB-435 cells assessed as growth inhibition after 48 hrs by SRB assay; type: functional; settings: MDA-MB-435, 48 h; for CC50: read-out: LC50 (the source's name)
SK-MEL-2 = assay: Cytotoxicity against human SK-MEL-2 cells assessed as growth inhibition after 48 hrs by SRB assay; type: functional; settings: SK-MEL-2, 48 h; for CC50: read-out: LC50 (the source's name)
SK-MEL-5 = assay: Cytotoxicity against human SK-MEL-5 cells assessed as growth inhibition after 48 hrs by SRB assay; type: functional; settings: SK-MEL-5, 48 h; for CC50: read-out: LC50 (the source's name)
[8] = Cytotoxicity against human UACC62 cells assessed as growth inhibition after 48 hrs by SRB assay; type: functional; settings: UACC-62, 48 h; for CC50: read-out: LC50 (the source's name)
[9] = Cytotoxicity against human OVCAR3 cells assessed as growth inhibition after 48 hrs by SRB assay; type: functional; settings: OVCAR-3, 48 h
[10] = Cytotoxicity against human OVCAR4 cells assessed as growth inhibition after 48 hrs by SRB assay; type: functional; settings: OVCAR-4, 48 h
[11] = Cytotoxicity against human OVCAR5 cells assessed as growth inhibition after 48 hrs by SRB assay; type: functional; settings: OVCAR-5, 48 h
[12] = Cytotoxicity against human OVCAR8 cells assessed as growth inhibition after 48 hrs by SRB assay; type: functional; settings: OVCAR-8, 48 h; for CC50: read-out: LC50 (the source's name)
[13] = Cytotoxicity against human NCI-ADR-RES cells assessed as growth inhibition after 48 hrs by SRB assay; type: functional; settings: for CC50: read-out: LC50 (the source's name)
[14] = Cytotoxicity against human SKOV3 cells assessed as growth inhibition after 48 hrs by SRB assay; type: functional; settings: SK-OV-3, 48 h; for CC50: read-out: LC50 (the source's name)
ACHN = assay: Cytotoxicity against human ACHN cells assessed as growth inhibition after 48 hrs by SRB assay; type: functional
[15] = Cytotoxicity against human RXF393 cells assessed as growth inhibition after 48 hrs by SRB assay; type: functional; settings: RXF 393, 48 h; for CC50: read-out: LC50 (the source's name)
MCF7 = assay: Cytotoxicity against human MCF7 cells assessed as growth inhibition after 48 hrs by SRB assay; type: functional; settings: MCF7, 48 h; for CC50: read-out: LC50 (the source's name)
T47D = assay: Cytotoxicity against human T47D cells assessed as growth inhibition after 48 hrs by SRB assay; type: functional
Estrogen receptor = biological target: T1, Estrogen receptor (Homo sapiens, UniProt P03372)
T1 sequence (P03372 whole entry): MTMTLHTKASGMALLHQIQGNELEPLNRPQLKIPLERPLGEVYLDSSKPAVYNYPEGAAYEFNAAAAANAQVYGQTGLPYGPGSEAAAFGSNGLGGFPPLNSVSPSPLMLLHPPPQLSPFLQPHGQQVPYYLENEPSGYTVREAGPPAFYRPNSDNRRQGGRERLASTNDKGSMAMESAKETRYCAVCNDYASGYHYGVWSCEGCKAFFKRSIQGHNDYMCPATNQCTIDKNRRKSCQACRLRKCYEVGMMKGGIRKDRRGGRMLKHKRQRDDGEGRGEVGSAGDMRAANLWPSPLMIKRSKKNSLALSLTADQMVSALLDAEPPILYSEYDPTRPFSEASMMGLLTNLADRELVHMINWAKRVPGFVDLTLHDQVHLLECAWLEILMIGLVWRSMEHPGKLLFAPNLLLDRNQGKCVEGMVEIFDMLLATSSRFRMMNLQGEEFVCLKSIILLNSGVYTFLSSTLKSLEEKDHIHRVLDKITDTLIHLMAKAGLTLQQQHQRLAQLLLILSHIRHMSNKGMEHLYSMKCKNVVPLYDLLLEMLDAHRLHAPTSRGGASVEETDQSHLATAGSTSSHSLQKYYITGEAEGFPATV
Description: Displacement of [3H]-E2 from human ER-alpha incubated for 16 to 20 hrs by liquid scintillation counting analysis

## CCCCCCCCCC(=O)Oc1ccc(/C(=C(/C)c2ccccc2)c2ccc(OCCN3CCCC3)cc2)cc1
CCRF-CEM
  GI50: 9.51 µM
  TGI: 22.3 µM
  CC50: 50 µM
[1]
  GI50: 9.24 µM
  TGI: 18.7 µM
  CC50: 37.8 µM
[2]
  GI50: 8.61 µM
  LC50: 47.7 µM
  TGI: 20.3 µM
EKVX
  GI50: 6.92 µM
  LC50: 26.6 µM
  TGI: 13.6 µM
[3]
  GI50: 8.75 µM
  LC50 (concentration giving 50% net cell kill): 34.1 µM
  TGI: 17.3 µM
NCI-H23
  GI50: 7.74 µM
  TGI: 16.1 µM
  CC50: 33.4 µM
NCI-H522
  GI50: 9.36 µM
  TGI: 18.4 µM
  CC50: 36.3 µM
[4]
  GI50: 8.66 µM
  TGI: 17.2 µM
  CC50: 34.3 µM
[5]
  GI50: 8.57 µM
  LC50: 28.5 µM
  TGI: 15.6 µM
[6]
  GI50: 8.7 µM
  LC50: 32.9 µM
  TGI: 16.9 µM
[7]
  GI50: 6.55 µM
  LC50: 27.9 µM
  TGI: 13.5 µM
M14
  TGI: 16.5 µM
  CC50: 32.8 µM
MDA-MB-435
  GI50: 7.47 µM
  TGI: 14.1 µM
  CC50: 26.5 µM
SK-MEL-2
  GI50: 9.49 µM
  TGI: 18.1 µM
  CC50: 34.4 µM
SK-MEL-5
  GI50: 8.13 µM
  TGI: 14.9 µM
  CC50: 27.3 µM
[8]
  GI50: 9.18 µM
  TGI: 16.8 µM
  CC50: 30.9 µM
[9]
  GI50: 8.18 µM
  LC50: 31.6 µM
  TGI: 16.1 µM
[10]
  GI50: 7.39 µM
  LC50: 29.9 µM
  TGI: 14.9 µM
[11]
  GI50: 8.56 µM
  LC50 (concentration killing 50% of cells): 31.8 µM
  TGI: 16.5 µM
[12]
  GI50: 9.78 µM
  TGI: 20.8 µM
  CC50: 44.2 µM
[13]
  GI50: 8.03 µM
  TGI: 16.8 µM
  CC50: 35.4 µM
[14]
  GI50: 7.36 µM
  TGI: 14.8 µM
  CC50: 29.6 µM
ACHN
  GI50: 8.16 µM
  LC50 (concentration causing 50% net cell kill): 29.3 µM
  TGI: 15.5 µM
[15]
  GI50: 6.95 µM
  TGI: 14.1 µM
  CC50: 28.8 µM
MCF7
  GI50: < 5 µM
  TGI: 10.3 µM
  CC50: 28 µM
T47D
  LC50: 39.9 µM
  TGI: 14.4 µM
Estrogen receptor
  pIC50: 7.32

## C/C(=C(/c1ccc(O)cc1)c1ccc(OCCN2CCCC2)cc1)c1ccccc1
CCRF-CEM
  GI50: 3.2 µM
  TGI: 9.85 µM
  CC50: 50 µM
[1]
  GI50: 2.04 µM
  TGI: 4.97 µM
  CC50: 23.4 µM
[2]
  GI50: 2.94 µM
  LC50: 67.2 µM
  TGI: 11 µM
EKVX
  GI50: 2.46 µM
  LC50: 33.9 µM
  TGI: 11.5 µM
[3]
  GI50: 2.1 µM
  LC50 (concentration giving 50% net cell kill): 9.84 µM
  TGI: 4.54 µM
NCI-H23
  GI50: 4.31 µM
  TGI: 18.2 µM
  CC50: 50.8 µM
NCI-H522
  GI50: 2.1 µM
  TGI: 5.09 µM
  CC50: 18.6 µM
[4]
  GI50: 2.34 µM
  TGI: 6.18 µM
  CC50: 28.5 µM
[5]
  GI50: 2.28 µM
  LC50: 15.3 µM
  TGI: 5.16 µM
[6]
  GI50: 1.81 µM
  LC50: 7.79 µM
  TGI: 3.76 µM
[7]
  GI50: 3.07 µM
  LC50: 42.2 µM
  TGI: 15.7 µM
M14
  GI50: 1.88 µM
  TGI: 4.08 µM
  CC50: 8.86 µM
MDA-MB-435
  GI50: 1.88 µM
  TGI: 4.4 µM
  CC50: 10.8 µM
SK-MEL-2
  GI50: 1.97 µM
  TGI: 3.95 µM
  CC50: 7.94 µM
SK-MEL-5
  GI50: 1.72 µM
  TGI: 3.1 µM
  CC50: 5.59 µM
[8]
  GI50: 2.26 µM
  TGI: 4.72 µM
  CC50: 9.84 µM
[9]
  GI50: 5.66 µM
  LC50: 42.5 µM
  TGI: 18.1 µM
[10]
  GI50: 4.7 µM
  LC50: 43.3 µM
  TGI: 17.5 µM
[11]
  GI50: 7.99 µM
  LC50 (concentration killing 50% of cells): 54.2 µM
  TGI: 22.5 µM
[12]
  GI50: 5.73 µM
  TGI: 23.1 µM
  CC50: 77.2 µM
[13]
  GI50: 4.17 µM
  TGI: 18.3 µM
  CC50: 61.5 µM
[14]
  GI50: 3.25 µM
  TGI: 13 µM
  CC50: 36.9 µM
ACHN
  GI50: 4.28 µM
  LC50 (concentration causing 50% net cell kill): 44.1 µM
  TGI: 16.3 µM
[15]
  GI50: 2 µM
  TGI: 5.05 µM
  CC50: 19.8 µM
MCF7
  GI50: < 0.01 µM
  TGI: 2.72 µM
  CC50: 14 µM
T47D
  GI50: 0.716 µM
  LC50: 53.7 µM
  TGI: 7.93 µM
Estrogen receptor
  pIC50: 9.10
